Measurements taken from patent publication US5322850A, “Antiallergic piperidine derivatives of benzimidazole” (Fabrica Espanola de Productos Quimicos y Farmaceuticos, S.A., priority 1992, dated 1994).
Values joined by “and” are separate entries in the source; they are usually repeats but may differ in a detail not shown here. Equal entries are not always repeated.

Key:
[1] = target: H1 (Cavia porcellus, UniProt P31389); test: H1-antihistaminic activity in vitro: histamine-induced contractions of isolated guinea-pig ileum; settings: pH 7.4, 37° C., 20 min after antagonist, (n) given
Description: H1 -antihistaminic activity in vitro: Histamine-induced contractions of isolated guinea-pig ileum.
Distal ileum was obtained from male albino guinea pig (300-500 g). All animals were fasted overnight and killed by cervical dislocation and then exsanguinated. […] The tissue was washed by upward displacement of the bathing fluid. With an effective 1.2 g loading tension, the ileum was kept for 45 min (stabilization period). An accumulative dose-response curve for histamine was isotonically recorded with increasing concentrations and the tissue, after washing with Tyrode solution, was allowed to equilibrate. Twenty minutes later a second concentration-response curve was obtained previous addition of different concentrations of antagonist drugs. The results were calculated from the concentration-response curves for histamine at each drug concentration. All the concentrations were tested 2 to 4 times.

[2] = test system: H1; test: H1-antihistaminic activity in vivo: vascular permeability increase induced by histamine in rats; set-up: species or system rat (female Wistar)
Description: H1 -antihistaminic activity in vivo: Vascular permeability increase induced by histamine in rats.
Female Wistar rats (120-150 g) were used. They were fasted for 18 hours prior to the assay. […] 30 min after the dye injection, animals were sacrificed and the skin was removed. The extravasated dye sites were extracted with formamide and the dye spectrophotometrically evaluated.

[3] = test system: homologous passive cutaneous anaphylaxis (PCA); test: Antiallergic activity in vivo: vascular permeability increase induced by 48 hours homologous passive cutaneous anaphylaxis (PCA) in rats; set-up: species or system rat (female Wistar)
Description: Antiallergic activity in vivo: Vascular permeability increase induced by 48 hours homologous passive cutaneous anaphylaxis (PCA) in rats. Female Wistar rats (120-150 g) were used. They were sensitized passively by intradermic injections of homologous ovoalbumin antiserum on both sides of the middle shaved-back line of the rat. Forty-eight hours later each test compound was administered orally at doses of 1 mg/kg (5 mg/kg when R^1 is a methyl group) and 1 h later PCA reaction was induced by iv injection of Evans blue solution and ovoalbumin in PSS solution. The animals were sacrificed 30 minutes after the dye injection and the skin was removed. The extravasated dye sites were extracted with formamide and the dye spectrophotometrically evaluated.

[4] = test system: CNS; test: Preliminary study similar to Irwin's test in mice: effect on CNS; type: in vivo; set-up: key: --: If no effects were detected, no figures are shown
Description: A preliminary study similar to Irwins's test in mice was carried out at doses of 100 and 300 mg/kg at 1, 2, 3, 4 and 24 hours after the treatment. As reference ketotifene was used.

[5] = rat, oral, 1 mg/kg, 1 hour before histamine
[6] = rat, oral, 1 mg/kg, 1 h before PCA reaction
[7] = 100 mg/kg, 1, 2, 3, 4 and 24 hours
[8] = 300 mg/kg, 1, 2, 3, 4 and 24 hours

H1 (Cavia porcellus, UniProt P31389), sequence (P31389 whole entry): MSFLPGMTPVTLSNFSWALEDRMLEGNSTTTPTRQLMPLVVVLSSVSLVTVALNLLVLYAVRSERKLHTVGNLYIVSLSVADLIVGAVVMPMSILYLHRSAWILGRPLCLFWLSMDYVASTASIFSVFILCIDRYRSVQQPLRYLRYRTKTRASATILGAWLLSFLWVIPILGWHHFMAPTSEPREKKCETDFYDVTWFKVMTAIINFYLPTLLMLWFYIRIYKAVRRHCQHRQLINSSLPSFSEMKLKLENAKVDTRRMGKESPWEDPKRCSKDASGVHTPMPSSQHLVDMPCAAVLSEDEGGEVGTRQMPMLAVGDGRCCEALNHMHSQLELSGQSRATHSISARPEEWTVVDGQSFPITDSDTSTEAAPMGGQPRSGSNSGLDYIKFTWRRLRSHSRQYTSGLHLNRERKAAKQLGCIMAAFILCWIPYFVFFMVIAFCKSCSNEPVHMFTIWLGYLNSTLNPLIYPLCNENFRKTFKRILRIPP

Structure (SMILES)	pD'2 [1]	Inhibition of the increase of vascular permeability by Histamine [2, 5]	Inhibition of the increase of vascular permeability by P.C.A. [3, 6]	Convulsions [4, 7]	Death [4, 7]	Hypothermia [4, 7]	Loss of pinneal reflex [4, 7]	Loss of right-time reflex [4, 7]	Palpebral Ptosis [4, 7]	Spontaneous Activity decrease [4, 7]	Convulsions [4, 8]	Death [4, 8]	Hypothermia [4, 8]	Loss of pinneal reflex [4, 8]	Loss of right-time reflex [4, 8]	Palpebral Ptosis [4, 8]	Spontaneous Activity decrease [4, 8]	Spontaneous Activity decrease ([4]; 300 mg/kg, 1, 2, 3, 4 and 24 hours, 300 mg/kg)	Inhibition of the increase of vascular permeability by Histamine ([2]; po, 5 mg/kg)	Inhibition of the increase of vascular permeability by P.C.A. ([3]; po, 5 mg/kg)
CC(C)OCCn1c(C2CCN(CCc3ccc(C(C)(C)C)cc3)CC2)nc2ccccc21 [2 CH(CH3)2, 2-[1-(2-(4-(1,1-dimethylethyl)-phenyl)ethyl)piperidin-4-yl]-1-[2-(1-methylethoxy)ethyl]-1H-benzimidazole]	7.00	25%	30%																	
CC(C)OCCn1c(C2CCN(Cc3ccc(C(C)(C)C)cc3)CC2)nc2ccccc21 [1 CH(CH3)2, 2-[1-((4-(1,1-dimethylethyl)phenyl)methyl)piperidin-4-yl]-1-[(2-(1-methylethoxy)ethyl)]-1H-benzimidazole]	7.30	50%	40%	--	--	--	--	--	--	--	--	--	--	--	--	--	--			
CC(C)(C)c1ccc(C(O)CCCN2CCC(C(O)(c3ccccc3)c3ccccc3)CC2)cc1 (stereo not shown) [Terfenadine, reference compound]		20%	37%																	
COc1ccc(CCN2CCC(Nc3nc4ccccc4n3Cc3ccc(F)cc3)CC2)cc1 [Astemizole, reference compound]			38%																	
CCOCCn1c(C2CCN(CCc3ccc(C(C)(C)C)cc3)CC2)nc2ccccc21 [2 CH2 CH3, 2-[1-(2-(4-(1,1-dimethylethyl)-phenyl)ethyl)piperidin-4-yl]-1-(2-ethoxyethyl)-1H-benzimidazole]	7.52	60%	40%	--	--	--	--	--	--	--	--	--	--	--	--	--		-- and 2/4		
COCCn1c(C2CCN(Cc3ccc(C(C)(C)C)cc3)CC2)nc2ccccc21 [1 CH3, 2-[1-((4-(1,1-dimethylethyl)phenyl)methyl)piperidine-4-yl]-1-(2-methoxyethyl)-1H-benzimidazole]	6.75			--	--	2/4	--	--	--	3/4	4/4	4/4	4/4	4/4	4/4	4/4	4/4		70%	70%
CN1CCC(=C2c3ccccc3CC(=O)c3sccc32)CC1 [Ketotifene, reference compound]				--	--	--	--	--	--	--	--	--	1/4	--	1/4	1/4	2/4			
CCOCCn1c(C2CCN(Cc3ccc(C(C)(C)C)cc3)CC2)nc2ccccc21 [1 CH2 CH3]	7.08	70%	47%	--	--	--	--	--	--	--	4/4	--	--	--	--	--	4/4			
